The NIST ThermoML archive (doi:10.1021/je200668a)
Numbers after ± are expanded uncertainties.

Details: Liquid, Pulse Transmission

O [water]
Details	speed of sound [m/s]
267.88 K, 349500 kPa	1996.1 ± 3.2
267.89 K, 199900 kPa	1745.2 ± 2.6
273.01 K, 49300 kPa	1483.9 ± 2
273.02 K, 200500 kPa	1762.6 ± 2.6
273.03 K, 50300 kPa	1485.7 ± 2.5
273.05 K, 100 kPa	1399.3 ± 2
273.07 K, 49200 kPa	1484 ± 2
273.07 K, 499800 kPa	2214.4 ± 3.4
273.08 K, 200700 kPa	1763.5 ± 2.6
273.08 K, 300600 kPa	1930.8 ± 2.9
273.08 K, 399700 kPa	2080.1 ± 3.1
273.09 K, 100 kPa	1399.8 ± 2
273.09 K, 100000 kPa	1578.3 ± 2.3
273.09 K, 150200 kPa	1671.7 ± 2.5
273.09 K, 150400 kPa	1671.6 ± 2.5
273.09 K, 349400 kPa	2006.9 ± 3.2
273.1 K, 100 kPa	1398.7 ± 2
273.1 K, 100500 kPa	1579.6 ± 2.3
273.1 K, 250700 kPa	1849 ± 2.8
273.1 K, 350400 kPa	2009 ± 3.2
273.1 K, 450500 kPa	2150.3 ± 3.3
273.1 K, 500400 kPa	2215.2 ± 3.4
273.1 K, 550500 kPa	2281.3 ± 3.5
273.1 K, 602100 kPa	2345.3 ± 3.7
273.11 K, 200300 kPa	1762.7 ± 2.6
273.11 K, 250300 kPa	1848.4 ± 2.8
273.11 K, 250600 kPa	1848.7 ± 2.8
273.11 K, 299900 kPa	1929.5 ± 2.9
273.11 K, 550200 kPa	2281.4 ± 3.5
273.12 K, 300000 kPa	1929.7 ± 2.9
273.12 K, 399600 kPa	2079.5 ± 3.1
273.12 K, 401000 kPa	2081.2 ± 3.1
273.12 K, 449300 kPa	2149.5 ± 3.3
273.12 K, 450200 kPa	2149.8 ± 3.3
273.12 K, 550300 kPa	2276.8 ± 3.5
273.12 K, 599500 kPa	2342 ± 3.7
273.13 K, 150200 kPa	1672.1 ± 2.5
273.13 K, 349700 kPa	2007 ± 3.1
273.13 K, 499900 kPa	2214.6 ± 3.4
273.18 K, 99800 kPa	1577.5 ± 2.3
278.05 K, 100 kPa	1425.1 ± 2
278.05 K, 500300 kPa	2220.9 ± 3.4
278.07 K, 349300 kPa	2013.6 ± 3
278.08 K, 200300 kPa	1775.7 ± 2.6
278.08 K, 349600 kPa	2014.7 ± 3
278.08 K, 400000 kPa	2086.4 ± 3.1
278.08 K, 450900 kPa	2156.9 ± 3.3
278.08 K, 602100 kPa	2346.8 ± 3.7
278.09 K, 49200 kPa	1507.3 ± 2
278.09 K, 400000 kPa	2087.5 ± 3.1
278.09 K, 449700 kPa	2155.5 ± 3.4
278.09 K, 500500 kPa	2221.3 ± 3.4
278.09 K, 550800 kPa	2286.8 ± 3.6
278.09 K, 700200 kPa	2439.8 ± 4.9
278.1 K, 299900 kPa	1938.9 ± 2.9
278.1 K, 400500 kPa	2089.8 ± 3.2
278.1 K, 500400 kPa	2223.3 ± 3.4
278.11 K, 561500 kPa	2297.2 ± 3.6
278.11 K, 640200 kPa	2390.8 ± 3.8
278.12 K, 200800 kPa	1777.1 ± 2.6
278.12 K, 250200 kPa	1858.4 ± 2.8
278.12 K, 299900 kPa	1939.6 ± 2.9
278.12 K, 450800 kPa	2157.8 ± 3.4
278.12 K, 600700 kPa	2347.6 ± 3.7
278.12 K, 650000 kPa	2402.2 ± 3.8
278.13 K, 48300 kPa	1506 ± 2
278.13 K, 150100 kPa	1688.3 ± 2.4
278.13 K, 200100 kPa	1776.7 ± 2.6
278.13 K, 250100 kPa	1859.7 ± 2.8
278.13 K, 250600 kPa	1859.7 ± 2.8
278.13 K, 550600 kPa	2284.7 ± 3.5
278.14 K, 150100 kPa	1689.2 ± 2.4
278.15 K, 100 kPa	1424.8 ± 2
278.15 K, 99600 kPa	1597.6 ± 2.3
278.16 K, 99900 kPa	1599.9 ± 2.3
278.16 K, 300500 kPa	1940 ± 2.9
278.17 K, 349800 kPa	2017.6 ± 3
278.17 K, 599300 kPa	2344.6 ± 3.7
278.17 K, 651900 kPa	2402.7 ± 3.8
278.17 K, 701300 kPa	2451 ± 4.9
278.19 K, 109200 kPa	1614.9 ± 2.3
278.19 K, 159900 kPa	1705.3 ± 2.4
278.19 K, 700600 kPa	2446.5 ± 3.9
278.24 K, 100 kPa	1425.6 ± 2
288 K, 450300 kPa	2162.1 ± 3.3
288.07 K, 300700 kPa	1953.9 ± 2.9
288.07 K, 600900 kPa	2346.8 ± 3.7
288.08 K, 100 kPa	1463.4 ± 1.9
288.08 K, 50800 kPa	1549.6 ± 2
288.08 K, 149800 kPa	1717.5 ± 2.4
288.08 K, 250500 kPa	1878.9 ± 2.8
288.08 K, 350800 kPa	2026.4 ± 3
288.08 K, 400300 kPa	2094.6 ± 3.3
288.08 K, 699800 kPa	2453.6 ± 4
288.09 K, 50900 kPa	1549.8 ± 2
288.09 K, 110900 kPa	1650.2 ± 2.3
288.09 K, 160100 kPa	1733.4 ± 2.5
288.09 K, 349600 kPa	2026.1 ± 3
288.09 K, 599500 kPa	2345.8 ± 3.7
288.1 K, 499500 kPa	2226.5 ± 3.4
288.1 K, 499700 kPa	2225.7 ± 3.4
288.11 K, 100 kPa	1461.4 ± 2
288.11 K, 200800 kPa	1799.7 ± 2.6
288.11 K, 299800 kPa	1952.9 ± 2.9
288.11 K, 599900 kPa	2344.8 ± 3.7
288.11 K, 700800 kPa	2455.2 ± 4.1
288.12 K, 200300 kPa	1800.1 ± 2.6
288.12 K, 250000 kPa	1878.5 ± 2.7
288.12 K, 399800 kPa	2094.8 ± 3.3
288.13 K, 100 kPa	1462.4 ± 2
